From ChEMBL document CHEMBL1152205, “Dihydropyrazolopyrimidine inhibitors of K(V)1.5 (I(Kur))” (Bioorg Med Chem Lett, 2008)

Columns and labels:
[1] = target: T1, Potassium voltage-gated channel subfamily A member 5 (Homo sapiens, UniProt P22460); assay: Inhibition of human Kv1.5 channel expressed in mouse L929 cells by EP voltage clamp technique; assay type: cell-based
[2] = target: T1, Potassium voltage-gated channel subfamily A member 5; assay: Inhibition of human Kv1.5 channel expressed in Xenopus oocytes at 3 uM by EP voltage clamp technique; assay type: cell-based; details: Oocyte
[3] = Inhibition of L-type calcium channel expressed in HEK293 cells; assay type: cell-based
[4] = target: T1, Potassium voltage-gated channel subfamily A member 5; assay: Inhibition of human Kv1.5 channel expressed in Xenopus oocytes at 10 uM by EP voltage clamp technique; assay type: cell-based; details: Oocyte
[5] = Selectivity of human Kv1.5 channel over potassium channel IKs
[6] = Selectivity of human Kv1.5 channel over L-type calcium channel ICa
[7] = Inhibition of potassium channel IKs at 10 uM
[8] = Selectivity of human Kv1.5 channel over potassium channel IK1
[9] = Inhibition of L-type calcium channel ICa at 10 uM
hERG (KCNH2) = hERG (KCNH2) (Homo sapiens, UniProt Q12809); assay: Inhibition of human ERG at 10 uM
Homo sapiens = species: Homo sapiens; assay: Selectivity of human Kv1.5 channel over human ERG
[10] = Inhibition of potassium channel IK1 at 10 uM
[11] = Selectivity of human Kv1.5 channel over sodium channel INa
[12] = Inhibition of sodium channel INa at 10 uM by patch clamp technique
[13] = target: T1, Potassium voltage-gated channel subfamily A member 5; assay: Inhibition of human Kv1.5 channel expressed in mouse L929 cells at 1 uM by EP voltage clamp technique; assay type: cell-based

T1 sequence (P22460 whole entry): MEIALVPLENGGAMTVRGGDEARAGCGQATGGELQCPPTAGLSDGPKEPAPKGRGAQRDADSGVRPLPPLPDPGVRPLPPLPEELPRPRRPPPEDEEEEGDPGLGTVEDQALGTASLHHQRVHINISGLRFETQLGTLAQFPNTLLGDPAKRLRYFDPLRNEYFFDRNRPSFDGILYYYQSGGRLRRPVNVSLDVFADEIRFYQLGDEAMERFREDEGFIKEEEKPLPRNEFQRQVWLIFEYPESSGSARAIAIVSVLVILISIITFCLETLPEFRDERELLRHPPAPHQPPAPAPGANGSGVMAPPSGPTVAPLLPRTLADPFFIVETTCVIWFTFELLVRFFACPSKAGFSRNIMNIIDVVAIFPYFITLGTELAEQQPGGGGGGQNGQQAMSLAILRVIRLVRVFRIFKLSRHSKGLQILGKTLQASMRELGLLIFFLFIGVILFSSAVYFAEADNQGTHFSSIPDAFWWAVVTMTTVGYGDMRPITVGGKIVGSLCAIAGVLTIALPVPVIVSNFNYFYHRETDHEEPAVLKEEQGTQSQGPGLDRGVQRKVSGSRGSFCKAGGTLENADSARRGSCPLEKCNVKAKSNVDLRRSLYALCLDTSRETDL
Sequence of hERG (KCNH2) (Q12809 whole entry): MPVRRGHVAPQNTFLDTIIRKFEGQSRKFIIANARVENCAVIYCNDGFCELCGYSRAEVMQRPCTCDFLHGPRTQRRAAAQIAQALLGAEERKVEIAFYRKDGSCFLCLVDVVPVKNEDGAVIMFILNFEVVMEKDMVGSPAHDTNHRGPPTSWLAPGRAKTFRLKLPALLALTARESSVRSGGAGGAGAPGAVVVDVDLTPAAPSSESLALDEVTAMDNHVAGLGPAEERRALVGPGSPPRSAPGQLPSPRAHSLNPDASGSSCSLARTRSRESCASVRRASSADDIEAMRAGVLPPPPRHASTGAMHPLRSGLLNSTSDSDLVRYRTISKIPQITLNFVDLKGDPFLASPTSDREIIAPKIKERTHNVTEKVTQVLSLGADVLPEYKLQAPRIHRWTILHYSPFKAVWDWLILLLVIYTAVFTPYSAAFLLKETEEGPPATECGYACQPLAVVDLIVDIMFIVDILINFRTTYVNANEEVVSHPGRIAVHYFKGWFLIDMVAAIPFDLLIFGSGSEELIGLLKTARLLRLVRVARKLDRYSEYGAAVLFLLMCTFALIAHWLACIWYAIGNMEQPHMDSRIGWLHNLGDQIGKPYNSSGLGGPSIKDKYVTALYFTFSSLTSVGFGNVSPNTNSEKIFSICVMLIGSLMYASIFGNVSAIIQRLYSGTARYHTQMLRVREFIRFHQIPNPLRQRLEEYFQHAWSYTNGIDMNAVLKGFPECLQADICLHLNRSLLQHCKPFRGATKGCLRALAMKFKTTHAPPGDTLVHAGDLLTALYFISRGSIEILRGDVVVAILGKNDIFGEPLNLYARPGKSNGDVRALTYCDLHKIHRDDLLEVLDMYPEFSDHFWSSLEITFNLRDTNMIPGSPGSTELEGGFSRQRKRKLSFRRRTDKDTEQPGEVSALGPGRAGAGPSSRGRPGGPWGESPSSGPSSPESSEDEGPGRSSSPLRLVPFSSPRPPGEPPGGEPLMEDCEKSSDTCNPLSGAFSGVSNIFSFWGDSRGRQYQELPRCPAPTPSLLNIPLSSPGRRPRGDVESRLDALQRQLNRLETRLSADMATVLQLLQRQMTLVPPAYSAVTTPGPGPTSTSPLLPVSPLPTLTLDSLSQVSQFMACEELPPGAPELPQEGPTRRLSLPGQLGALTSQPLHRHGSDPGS

IC50 [1] | inhibition [2] | Compound | other results
490 nM |  | CCCNC(=O)C1=C(C)Nc2ccnn2C1c1ccc(Cl)c(Cl)c1 (centres undefined) | 
580 nM | 69% | CCCCCN(CCCCC)C(=O)C1=C(C)Nc2ccnn2C1c1ccc(Cl)c(Cl)c1 (centres undefined) | 
160 nM | 62% | CC1=C(C(=O)NCc2ccccc2)C(c2ccc(Cl)c(Cl)c2)n2nccc2N1 (centres undefined) | 
 | 17% | CC1=C(C(=O)N2CCOCC2)C(c2ccc(Cl)c(Cl)c2)n2nccc2N1 (centres undefined) | 
159 nM | 59% | CC1=C(C(=O)N2CCC(c3ccccc3)CC2)C(c2ccc(Cl)c(Cl)c2)n2nccc2N1 (centres undefined) | 
 | 17% | CC1=C(C(=O)N2CCN(C3CCCCC3)CC2)C(c2ccc(Cl)c(Cl)c2)n2nccc2N1 (centres undefined) | 
90 nM | 77% | CC1=C(C(=O)N2CCCCC2)C(c2ccc(Cl)c(Cl)c2)n2nccc2N1 (centres undefined) | 
970 nM | 52% | CC1=C(C(=O)N2CCC2)C(c2ccc(Cl)c(Cl)c2)n2nccc2N1 (centres undefined) | 
190 nM | 90% | CC1=C(C(=O)N2CCCCCC2)C(c2ccc(Cl)c(Cl)c2)n2nccc2N1 (centres undefined) | 
85 nM |  | CC1=C(C(=O)N2CCN(c3ccccc3)CC2)C(c2ccc(Cl)c(Cl)c2)n2nccc2N1 (centres undefined) | inhibition [4]: 82%
310 nM | 45% | CCCCN(CCCC)C(=O)C1=C(C)Nc2ccnn2C1c1ccc(Cl)c(Cl)c1 (centres undefined) | 
440 nM | 56% | CCCCNC(=O)C1=C(C)Nc2ccnn2C1c1ccc(Cl)c(Cl)c1 (centres undefined) | 
70 nM | 72% | CCCN(CCC)C(=O)C1=C(C)Nc2ccnn2C1c1ccc(Cl)c(Cl)c1 (centres undefined) | 
 | 5% | CC1=C(C(=O)N2CCN(C)CC2)C(c2ccc(Cl)c(Cl)c2)n2nccc2N1 (centres undefined) | 
100 nM |  | CC1=C(C(=O)NCCc2ccccc2)C(c2ccc(Cl)c(Cl)c2)n2nccc2N1 (centres undefined) | inhibition [4]: 84%
70 nM | 72% | CC1=C(C(=O)N2CCN(c3ccc(F)cc3)CC2)[C@@H](c2ccc(Cl)c(Cl)c2)n2nccc2N1 | fold change (FC) [5]: > 50; fold change (FC) [6]: > 50; inhibition [7]: 21%; fold change (FC) [8]: > 50; inhibition [9]: 59%; inhibition at 10 µM (hERG (KCNH2)): 69%; fold change (FC) (Homo sapiens): > 50; inhibition [10]: 3%; fold change (FC) [11]: > 50; inhibition [12]: 42%
200 nM | 88% | COC[C@@H]1CCCN1C(=O)C1=C(C)Nc2ccnn2C1c1ccc(Cl)c(Cl)c1 (some centres undefined) | 
1100 nM |  | CCOC(=O)C1=C(C)Nc2ccnn2C1c1cccc(Cl)c1Cl (centres undefined) | IC50 [3]: 9380 nM
590 nM | 48% | CCCCCNC(=O)C1=C(C)Nc2ccnn2C1c1ccc(Cl)c(Cl)c1 (centres undefined) | 
 | 39% | COC[C@H]1CCCN1C(=O)C1=C(C)Nc2ccnn2C1c1ccc(Cl)c(Cl)c1 (some centres undefined) | 
170 nM |  | CC1=C(C(=O)Nc2ccccc2)C(c2ccc(Cl)c(Cl)c2)n2nccc2N1 (centres undefined) | inhibition [4]: 83%
440 nM | 61% | CCN(CC)C(=O)C1=C(C)Nc2ccnn2C1c1ccc(Cl)c(Cl)c1 (centres undefined) | 
 | 19% | CC1=C(C(=O)N2CCN(c3ccc(F)cc3)CC2)[C@H](c2ccc(Cl)c(Cl)c2)n2nccc2N1 | 
660 nM | 67% | CC1=C(C(=O)N2CCCC2)C(c2ccc(Cl)c(Cl)c2)n2nccc2N1 (centres undefined) | 

More lines, now with the values behind:

Compound | IC50 [1] | inhibition [2] | other results
CC1=C(C(=O)N2CCN(c3ccc(F)cc3)CC2)C(c2cc3ccccc3o2)n2nccc2N1 (centres undefined) | 160 nM | 33% | 
CC1=C(C(=O)N2CCN(c3ccc(F)cc3)CC2)C(c2ccco2)n2nccc2N1 (centres undefined) |  | 1% | 
CC1=C(C(=O)N2CCN(c3ccc(F)cc3)CC2)C(c2sccc2C)n2nccc2N1 (centres undefined) |  | 29% | 
COc1cccc(C2C(C(=O)N3CCN(c4ccc(F)cc4)CC3)=C(C)Nc3ccnn32)c1OC (centres undefined) |  | 7% | 
COC(=O)C1=C(C)NC(C)=C(C(=O)OC)C1c1ccccc1[N+](=O)[O-] [NIFEDIPINE] | 6100 nM |  | IC50 [3]: 60 nM
CC1=C(C(=O)N2CCN(c3ccc(F)cc3)CC2)C(c2ccc3ccccc3n2)n2nccc2N1 (centres undefined) |  | 29% | 
CC1=C(C(=O)N2CCN(c3ccc(F)cc3)CC2)C(c2ccc3c(c2)OCO3)n2nccc2N1 (centres undefined) |  | 26% | 
CC1=C(C(=O)N2CCN(c3ccc(F)cc3)CC2)C(c2ccc(Cl)c(Cl)c2)n2nccc2N1 (centres undefined) | 120 nM | 65% | 
CC1=C(C(=O)Nc2cccnc2)C(c2ccc(Cl)c(Cl)c2)n2nccc2N1 (centres undefined) |  |  | inhibition [4]: 9%
CC1=C(C(=O)N2CCN(c3ccc(F)cc3)CC2)C(c2ccccn2)n2nccc2N1 (centres undefined) |  | 3% | 
CC1=C(C(=O)N2CCN(c3ccc(F)cc3)CC2)C(c2ccccc2)n2nccc2N1 (centres undefined) |  | 24% | 
CC1=C(C(=O)N2CCN(c3ccc(F)cc3)CC2)C(c2cnc3ccccc3c2)n2nccc2N1 (centres undefined) |  | 17% | 
COc1ccc(C2C(C(=O)N3CCN(c4ccc(F)cc4)CC3)=C(C)Nc3ccnn32)cc1OC (centres undefined) |  | 1% | 
CC1=C(C(=O)N2CCN(c3ccc(F)cc3)CC2)C(c2cccc(Cl)c2)n2nccc2N1 (centres undefined) | 190 nM | 68% | 
CC1=C(C(=O)N2CCN(c3ccc(F)cc3)CC2)[C@H](c2cccc(Cl)c2Cl)n2nccc2N1 |  | 2% | 
CC1=C(C(=O)N2CCN(c3ccc(F)cc3)CC2)C(c2ccc(C)o2)n2nccc2N1 (centres undefined) |  | 7% | 
CC1=C(C(=O)N2CCN(c3ccc(F)cc3)CC2)C(c2ccc([N+](=O)[O-])cc2)n2nccc2N1 (centres undefined) |  | 24% | 
CC1=C(C(=O)N2CCN(c3ccc(F)cc3)CC2)C(c2ccc(Cl)cc2Cl)n2nccc2N1 (centres undefined) | 280 nM | 50% | 
CC1=C(C(=O)N2CCN(c3ccc(F)cc3)CC2)C(c2ccc3ccccc3c2)n2nccc2N1 (centres undefined) | 650 nM | 39% | 
CC1=C(C(=O)N2CCN(c3ccc(F)cc3)CC2)C(c2ccc(Cl)s2)n2nccc2N1 (centres undefined) | 230 nM | 51% | 
CC1=C(C(=O)N2CCN(c3ccc(F)cc3)CC2)C(c2cc(Cl)cc(Cl)c2)n2nccc2N1 (centres undefined) | 140 nM | 62% | 
CC1=C(C(=O)N2CCN(c3ccc(F)cc3)CC2)C(c2cccs2)n2nccc2N1 (centres undefined) |  | 7% | 
CC1=C(C(=O)N2CCN(c3ccc(F)cc3)CC2)C(c2cccnc2)n2nccc2N1 (centres undefined) |  | 3% | 

Compound | IC50 [1] | inhibition [2] | other results
CC1=C(C(=O)N2CCN(c3ccc(F)cc3)CC2)[C@@H](c2cccc(Cl)c2Cl)n2nccc2N1 | 160 nM | 67% | fold change (FC) [5]: > 50; fold change (FC) [6]: > 50; inhibition [7]: 7%; fold change (FC) [8]: > 50; inhibition [9]: 55%; inhibition at 10 µM (hERG (KCNH2)): 41%; fold change (FC) (Homo sapiens): > 50; inhibition [10]: 1%; fold change (FC) [11]: > 50; inhibition [12]: 14%
CC1=C(C(=O)N2CCN(c3ccc(F)cc3)CC2)C(c2ccc(C)s2)n2nccc2N1 (centres undefined) |  | 1% | 
COc1ccc(C2C(C(=O)N3CCN(c4ccc(F)cc4)CC3)=C(C)Nc3ccnn32)cc1 (centres undefined) |  | 11% | 
CC1=C(C(=O)N2CCN(c3ccc(F)cc3)CC2)C(c2ccccc2[N+](=O)[O-])n2nccc2N1 (centres undefined) |  | 4% | 
CC1=C(C(=O)N2CCN(c3ccc(F)cc3)CC2)C(c2ccccc2Cl)n2nccc2N1 (centres undefined) |  | 30% | 
CC1=C(C(=O)N2CCN(c3ccc(F)cc3)CC2)C(c2sc3ccccc3c2C)n2nccc2N1 (centres undefined) | 200 nM | 56% | 
CC1=C(C(=O)N2CCN(c3ccc(F)cc3)CC2)C(c2cccc(C)c2)n2nccc2N1 (centres undefined) | 540 nM | 57% | 
CC1=C(C(=O)N2CCN(c3ccc(F)cc3)CC2)C(c2cccc(Cl)c2Cl)n2nccc2N1 (centres undefined) | 160 nM | 72% | 
CC1=C(C(=O)N2CCN(c3ccc(F)cc3)CC2)C(c2ccc(C)cc2)n2nccc2N1 (centres undefined) |  | 27% | 
CC1=C(C(=O)N2CCN(c3ccc(F)cc3)CC2)C(c2ccc(Cl)cc2)n2nccc2N1 (centres undefined) | 440 nM | 42% | 
COc1ccccc1C1C(C(=O)N2CCN(c3ccc(F)cc3)CC2)=C(C)Nc2ccnn21 (centres undefined) |  | 2% | 
Cc1nc2ccnn2c(-c2ccc(Cl)c(Cl)c2)c1C(=O)N1CCCCC1 |  | 17% | 
CC1=C(C(=O)N2CCN(c3ccc(F)cc3)CC2)C(c2cccc3c2OCO3)n2nccc2N1 (centres undefined) |  | 18% | 
CC1=C(C(=O)N2CCN(c3ccc(F)cc3)CC2)C(c2ccccc2C)n2nccc2N1 (centres undefined) |  | 37% | inhibition [13]: 48%
CC1=C(C(=O)N2CCN(c3ccc(F)cc3)CC2)C(c2cc(Cl)ccc2Cl)n2nccc2N1 (centres undefined) | 820 nM | 41% | 
CC1=C(C(=O)N2CCN(c3ccc(F)cc3)CC2)C(c2ccc(C#N)cc2)n2nccc2N1 (centres undefined) |  | 14% | 
CC1=C(C(=O)N2CCN(c3ccc(F)cc3)CC2)C(c2ccc(C)c(C)c2)n2nccc2N1 (centres undefined) | 750 nM | 34% | 
CC1=C(C(=O)N2CCN(c3ccc(F)cc3)CC2)C(c2cc(C)cc(C)c2)n2nccc2N1 (centres undefined) | 420 nM | 58% | 
CC1=C(C(=O)N2CCN(c3ccc(F)cc3)CC2)C(c2cccc(C#N)c2)n2nccc2N1 (centres undefined) |  | 11% | 
Cc1nc2ccnn2c(-c2cccc(Cl)c2Cl)c1C(=O)N1CCN(c2ccc(F)cc2)CC1 |  | 17% | 
COc1cccc(C2C(C(=O)N3CCN(c4ccc(F)cc4)CC3)=C(C)Nc3ccnn32)c1 (centres undefined) |  | 30% | 
CC1=C(C(=O)N2CCN(c3ccc(F)cc3)CC2)C(c2cccc([N+](=O)[O-])c2)n2nccc2N1 (centres undefined) |  | 15% | 
